Values quoted from earlier work, collected in PMC2924185 (Journal of the American Chemical Society, 2010).

System: panel of human protein kinases
Conditions: for selectivity score: judged by similar criteria

CC(C)(C)n1nc(-c2ccc(Cl)cc2)c2c(N)ncnc21 [PP2]
potency among Src-family kinases (in words): significantly more potent against Src-family members Fyn, Hck, and Lyn than against Src itself

CNC(=O)c1cc(Oc2ccc(NC(=O)Nc3ccc(Cl)c(C(F)(F)F)c3)cc2)ccn1 [sorafenib]
selectivity score: 0.10

CN[C@@H]1C[C@H]2O[C@@](C)([C@@H]1OC)n1c3ccccc3c3c4c(c5c6ccccc6n2c5c31)C(=O)NC4 [staurosporine]
selectivity score: 0.50

Cc1ccc(-c2nn(C(C)(C)C)c3ncnc(N)c23)cc1 [PP1]
potency among Src-family kinases (in words): significantly more potent against Src-family members Fyn, Hck, and Lyn than against Src itself
